Results published in BindingDB's records for doi:10.1074/jbc.M113.514646 (Emory University, 2014).

What was measured:
Experiment in all cases: Ligand Binding Assay
Settings in all cases: pH 8.2; 30 °C
[1] = biological target: Fatty acid-binding protein 5 (Homo sapiens, UniProt Q01469)
Text: (§1) In brief, both wild-type and mutant hFABP5 were expressed and purified to homogeneity as described above and dialyzed in PBS (pH 8.2). […] Blank measurements obtained from protein-only samples were subtracted at each protein concentration tested to obtain the final values. […] Blanks consisting of 1,8-ANS and fatty acid in the absence of protein were subtracted at each ligand concentration tested. The resulting fluorescence values were used to calculate a Ki value for the fatty acid of interest. Data were collected at 30 °C on a BioTek Synergy plate reader using an excitation filter of 380/20nm and an emission filter of 460/40nmand processed inGraphPad Prism 5.

[2] = biological target: Fatty acid-binding protein 5 [K24A,R33A,K34A] (Homo sapiens, UniProt Q01469, K24A/K34A/R33A)
Fatty acid-binding protein 5 [K24A,R33A,K34A], sequence (Q01469 2-135 K24A/R33A/K34A limits assumed): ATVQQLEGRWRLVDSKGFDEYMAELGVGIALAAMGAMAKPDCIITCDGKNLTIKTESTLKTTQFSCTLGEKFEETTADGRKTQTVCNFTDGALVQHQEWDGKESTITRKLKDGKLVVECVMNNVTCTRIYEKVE
Text: as §1

[3] = biological target: Fatty acid-binding protein 5 [M35A,L60A] (Homo sapiens, UniProt Q01469, L60A/M35A)
Fatty acid-binding protein 5 [M35A,L60A], sequence (Q01469 2-135 M35A/L60A limits assumed): as the sequence (Q01469 2-135 K24A/R33A/K34A limits assumed) above, with A23K, A32R, A33K, M34A, L59A counted along it
Text: as §1

Fatty acid-binding protein 5, sequence (Q01469 whole entry): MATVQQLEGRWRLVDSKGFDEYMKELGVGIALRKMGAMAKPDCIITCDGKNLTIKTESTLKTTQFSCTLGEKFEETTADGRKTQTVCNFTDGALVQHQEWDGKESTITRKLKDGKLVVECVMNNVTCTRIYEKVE

For `CCCCC/C=C\C/C=C\CCCCCCCC(=O)O`, the Ki [1] was 1.26 µM, the Ki [2] was 2.17 µM and the Ki [3] was 3.47 µM.
`CCCCC/C=C\C/C=C\C/C=C\C/C=C\CCCC(=O)O` [[1-14C]Arachidonic acid] gave a Ki [1] of 2.59 µM, a Ki [2] of 9.37 µM and a Ki [3] of 5.01 µM.
In the case of `O=S(=O)(O)c1cccc2cccc(Nc3ccccc3)c12` [ANS], the Kd [1] is reported as 6.57 µM, the Kd [2] is reported as 12.6 µM and the Kd [3] is reported as 6.1 µM.
In the case of `CCCCCCCCN[C@H]1C=C(CO)[C@@H](O)[C@H](O)[C@H]1O` [NOEV], the Ki [1] is reported as 1.1 µM, the Ki [2] is reported as 1.24 µM and the Ki [3] is reported as 0.7 µM.
In the case of `CCCCCC/C=C\CCCCCCCC(=O)O` [(9Z)-hexadec-9-enoic acid], the Ki [1] is reported as 1.36 µM, the Ki [2] is reported as 1.64 µM and the Ki [3] is reported as 1.78 µM.
